Experimental data as given in patent US8415128B2, “Mitigation of photodamage in analytical reactions” (Pacific Biosciences of California, Inc., priority 2005, dated 2013).

Experiments:
Type in all cases: biochemical
DNA polymerase enzymes = assay: Chromatide incorporation activity after photodamage step on planar glass substrates; conditions: relative to a non-illuminated control region; Laser Power 2.5 μW/μm^2; baseline 10 mM MEA-Ac, 0.1×GO-Cat, 25 mM Tris-Ascorbate; Trolox at 1 mM, PPD at 100 mM
Protocol: In the experiment, DNA polymerase enzymes were immobilized on planar glass substrates (fused silica microscope slides) and subjected to reaction conditions under which DNA synthesis was taking place. Each reaction mixture also included a baseline level of photodamage mitigating agents (10 mM MEA-Ac, 0.1×GO-Cat, 25 mM Tris-Ascorbate). The reactions were carried out under laser illumination of varying power.
Following the photodamage step, all the solution was washed from the chip and replaced with ordinary buffers and dNTPs. In addition, a base labeled fluorescent nucleotide (chromatide) was added to provide a fluorescent signal of incorporation activity following the photodamage step, above. […] The activity of the enzyme was measured based upon the relative fluorescence of the DNA on the slide.
Table 1, below provides the percent chromatide relative to a non-illuminated control region, for each different additive at the listed laser power.

[1] = test system: modified φ29 DNA polymerase; assay: Bulk DNA synthesis under laser illumination, agarose gel image scanning; conditions: dye labeled tetraphosphates (reaction condition 3); 5 minute illumination; 5 mM DTT or 100 mM MEA
Protocol: In a first assay, synthesis reaction mixtures contained a modified φ29 DNA polymerase, 300 nM DNA template, three native nucleoside triphosphates (at 10 μM each) and a fluorescent dye labeled nucleoside polyphosphate (at 10 μM) in synthesis buffer (50 mM Tris-HCl, pH 7.5, 75 mM KCL, 20 mM (NH4)2SO4, 10 mM BME, 0.7 mM MnCl2). Each of the reactions were carried out at room temperature (22° C.) for the desired illumination period, ranging from 1 minute to one hour.
The experiment included two sets each of three different reaction mixtures: (1) a synthesis reaction using only native, e.g., unlabeled nucleoside triphosphates; (2) a synthesis reaction including two native nucleoside triphosphates, an Alexa 488 labeled dCTP analog, and an Alexa 568 labeled dTTP; and (3) a synthesis reaction including two native nucleoside triphosphates, an Alexa 488 labeled dC4P analog (tetraphosphate), and an Alexa 568 labeled dT4P. Each different synthesis reaction conditions included either no illumination or laser illumination during synthesis for five minutes with wavelengths of 488, 568 and 647 nm, followed by 60 minutes of nonilluminated synthesis. […]
The gel was subjected to image scanning (Molecular Dynamics Typhoon 9400, with Typhoon scanner Control Version 2; gel image quantified with Molecular Dynamiics ImageQuant ver. 5.2). […]

[2] = test system: DNA polymerase immobilized within zero mode waveguides; assay: DNA synthesis in zero mode waveguide arrays with and without laser illumination; conditions: 160 mM DTT, without MEA; ZMW arrays
Protocol: A similar set of experiments to those described above were performed using DNA polymerase immobilized within zero mode waveguides in an array of waveguides. As above, the first experiment was designed to identify whether laser illumination caused damage to immobilized polymerase enzymes on nanostructured surfaces. The surfaces included ZMW arrays in which the polymerase enzyme was adsorbed to the surface. […] The illumination profile is shown in the first panel (far left), while the image of the stained DNA product in the illuminated synthesis is shown in the adjacent panel (middle left). […] The middle right and far right panels show non-illuminated waveguide arrays, and indicate substantially more DNA is present than in the illuminated sample, again showing photo-induced damage to the polymerase activity in the waveguide arrays. FIG. 4B illustrates a first set of waveguide arrays in which similar synthesis reactions were carried out in the presence of no additional mitigation agents (e.g., only 10 mM βME), or in the presence of 5 mM DTT and 100 mM MEA.

Row | Structure (SMILES) | % Chromatide activity (DNA polymerase enzymes) [%] | ratio of product when exposed to laser illumination to that in the absence of such illumination [1] | amount of damaged polymerase activity [2]
1 | Nc1ccc(N)cc1 [PPD, p-phenylenediamene] | 58 |  | 
2 | NCCS [MEA, mercaptoethylamine] |  | 1.04 | 
3 | C1CN2CCN1CC2 [DABCO, diazobicyclooctane] | 20 |  | 
4 | Cc1c(C)c2c(c(C)c1O)CCC(C)(C(=O)O)O2 (stereo not shown) [Trolox] | 41 |  | 
5 | O[C@H](CS)[C@H](O)CS (racemic) [DTT, dithiothreitol] |  | 0.59 | improvements
6 | Cc1cc(C(C)(C)C)c(O)c(C(C)(C)C)c1 [BHT, butylated hydroxytoluene] | 22 |  | 
